Converted amounts (≈) assume the structure as drawn.
Assays:
Anas platyrhynchos = settings: oral, mortality
Apis mellifera = settings: acute, mortality
Canidae = settings: chronic; duration: 1 years; oral; Dog Other; clinical signs
Ceriodaphnia dubia = settings: chronic/long-term; duration: 7 days; reproduction
Lepomis macrochirus = settings: acute; duration: 96 hours; mortality
Rattus norvegicus = settings: for LD50: acute, oral, mortality
Leuciscus idus = settings: acute; duration: 96 hours; mortality
Mus musculus = settings: acute; oral; mortality
Macaca mulatta = settings: acute; oral; neurology
[1] = acute; oral; unspecified; mortality
Colinus virginianus = settings: acute; oral; diet; mortality
Tagia sp. = settings: acute; duration: 14 days; mortality

CNC(=O)Oc1cccc2c1OC(C)(C)C2 [Carbofuran]
LD50 (Anas platyrhynchos; acute, unspecified, M): 0.71 mg/kg | LC50 (Anas platyrhynchos; short-term, feed): 1.6 mg/kg-day | LD50 (Apis mellifera; dermal): 0.0357 µg/piece | NOAEL (Canidae): 0.1 mg/kg-day | NOEC (Ceriodaphnia dubia): 0.00016 mg/L | LC50 (Lepomis macrochirus): 0.18 µg/mL (≈ 0.814 µM) | LD50 (Rattus norvegicus): < 5.6 mg/kg | NOAEL (Rattus norvegicus; reproduction developmental, clinical signs): 0.1 mg/kg-day

O=C(O)CCCc1c[nH]c2ccccc12 [Indole-3-butyric acid]
LC50 (Leuciscus idus): 210 µg/mL (≈ 1030 µM) | LD50 (Mus musculus): 1920 mg/kg-day

C/C(=C/C=C/[C@@H](C)C(=O)O)[C@H]1CN[C@H](C(=O)O)[C@H]1CC(=O)O [L-Domoic acid]
LOAEL (Macaca mulatta): 5 mg/kg-day

[S] [Sulfur]
LD50 [1]: > 5000 mg/kg | LD50 (Apis mellifera; oral, unspecified): > 100 µg/piece | LC50 (Colinus virginianus): > 1330 mg/kg-day | LC50 (Oncorhynchus mykiss; acute, duration: 96 hours, mortality): > 0.063 µg/mL | NOEC (Oncorhynchus mykiss; chronic/long-term, duration: 28 days, growth): > 0.063 mg/L | LD50 (Rattus norvegicus): > 1760 mg/kg | NOAEL (Rattus norvegicus; short-term, duration: 28 days, no effects): > 1000 mg/kg-day | NOAEL (Rattus norvegicus; subchronic, duration: 90 days, no effects): 1000 mg/kg-day | LC50 (Tagia sp.): > 1580 mg/kg
